Counter-ions that a name gives are not always drawn.
Biological target: T1, human GPR120 (Homo sapiens, UniProt Q5NUL3)
T1 construct: expressed in transfected cells; host or cells: CHO-K1
T1 sequence (Q5NUL3 1-361): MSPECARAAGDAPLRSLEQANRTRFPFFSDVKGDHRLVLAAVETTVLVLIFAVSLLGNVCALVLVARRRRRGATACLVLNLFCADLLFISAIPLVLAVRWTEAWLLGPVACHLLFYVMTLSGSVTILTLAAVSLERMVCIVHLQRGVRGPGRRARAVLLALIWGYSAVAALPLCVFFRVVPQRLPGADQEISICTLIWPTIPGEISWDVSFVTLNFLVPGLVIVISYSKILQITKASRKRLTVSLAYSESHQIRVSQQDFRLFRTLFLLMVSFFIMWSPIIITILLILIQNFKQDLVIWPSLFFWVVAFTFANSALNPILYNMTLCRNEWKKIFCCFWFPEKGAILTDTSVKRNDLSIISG
Test: Human GPR120 IP1 assay (inositol phosphate turnover)
Assay type: cell-based
Conditions: IP1 accumulation in CHO-K1 cells stably expressing the short form of human GPR120
Text: The binding of small molecule agonists to the G-protein-coupled receptor GPR120 activates phospholipase C, and leads to the generation of inositol 1,4,5-trisphosphate (InsP3 or IP3). IP3 is subsequently de-phosphorylated to IP1, which accumulates in cells and is stable in the presence of lithium chloride.
In the present method, agonist-induced activation of the human and rat GPR120 receptor was monitored by measuring the accumulation of IP1 in CHO-K1 cells that were stably expressing the short form of human GPR120 (Accession #NM_001195755) or HEK293 cells stably expressing rat GPR120 (Accession #NM_001047088). Following agonist addition, GPR120 activation and subsequent accumulation of IP1 was measured using a homogeneous Time Resolved Fluorescence-based ELISA commercially available from CisBio (IP-one ELISA Kit). The IP-One ELISA was a competitive immunoassay which uses IP1 labeled with […] and a terbium cryptate-labeled anti-IP1 monoclonal antibody. […] The signal loss was then back calculated to IP1 concentration using an IP1 standard curve. Determination of IP1 concentration was a direct measure of GPR120 activation and was used to determine compound potency (EC50).
Human GPR120 stable cell-lines were generated in CHO cells. The expression plasmids were transfected using lipofectamine (Life Technologies) following manufacturer's instructions. Stable cell-lines were generated following drug selection and single cell cloning. Rat GPR120 stable cell-lines were generated in HEK cells using the Jump-In™ cell engineering platform (Life Technologies) following manufacturer's instructions. Stable cell-lines were generated following drug selection and single cell cloning.
The assay was performed in 384-well format. CHO cells stably expressing human GPR120 were plated at 20,000 cells per well in growth medium (DMEM/F12, 10% fetal calf serum). HEK293 cells stably expressing rat GPR120 were plated at […] per well in growth medium (DMEM, 10% fetal calf serum). Cell plates were then incubated 16 hours at 37 degrees in a 5% CO2 incubator. Measurement of Inositol Phosphate Turnover (IP1) was performed using the CisBio IP-One kit (Part number 62IPAPEB). After the 16 hour incubation, the growth media was removed by centrifugation using the BlueWasher (AusWasher GUI Ver. v1.0.1.8) Protocol #21-“Light Dry” and 10 μl of stimulation buffer (prepared as described in the kit) was added to each well. In a separate plate, compounds were diluted in DMSO (200-fold over the final concentration in the assay well) and 50 nl was acoustically transferred to the appropriate well in the assay cell plate. The plates were then incubated for 60 minutes at 37 degrees in a 5% CO2 incubator. 10 μl of detection buffer (also prepared as described in the IP-One kit) was added to each well and the plates were incubated at room temperature for 60 minutes in the dark. The plates were then read in a Perkin ElmerEnVision or equivalent reader able to measure FRET. Fluorescent ratio of emission at 665 and 620 nm was then converted to the IP1 concentration by back calculating from an IP1 standard curve prepared at the time of the assay. The data was normalized to % activity using a reference compound, and the EC50 values were determined using a standard 4-parameter fit.

Q: For Oc1cc(-c2ccc(OC3CC(c4ccc(C5CC5)cc4)C3)nc2)on1 (stereo not shown) [Example 15, 5-(6-{[3-(4-cyclo-propyl-phenyl)cyclobutyl]oxy}pyridin-3-yl)isoxazol-3-ol], which EC50 is on record?
A: 41 nM

Q: For Oc1cc(-c2cnc(O[C@H]3C[C@@H](c4ccc(-c5cnco5)cc4)C3)cn2)on1 [Example 16, 5-[5-({cis-3-[4-(1,3-oxazol-5-yl)phenyl]cyclobutyl}oxy)pyrazin-2-yl]isoxazol-3-ol], which EC50 is on record?
A: 64 nM

Q: Which EC50 does the source give for Oc1cc(-c2cnc(O[C@H]3C[C@@H](c4ccc(-c5cc(F)ccn5)cc4)C3)cn2)on1 [Example 17, ammonium 5-[5-({cis-3-[4-(4-fluoropyridin-2-yl)phenyl]cyclobutyl}oxy)pyrazin-2-yl]isoxazol-3-olate] here?
A: 86 nM

Q: How did the EC50 turn out when Oc1cc(-c2cnc(O[C@H]3C[C@@H](c4ccc(-c5ccc(C(F)(F)F)nc5)cc4)C3)cn2)on1 [Example 18, 5-{5-[(cis-3-{4-[6-(trifluoromethyl)pyridin-3-yl]phenyl}cyclobutyl)oxy]pyrazin-2-yl}isoxazol-3-ol] was run?
A: 134 nM

Q: With Oc1cc(-c2cnc(O[C@H]3C[C@@H](c4cccc(-c5cnco5)c4)C3)cn2)on1 [Example 19, ammonium 5-[5-({cis-3-[3-(1,3-oxazol-5-yl)phenyl]-cyclobutyl}oxy)pyrazin-2-yl]isoxazol-3-olate] as the compound, how does the EC50 read?
A: 75 nM

Q: With Oc1cc(-c2cnc(O[C@H]3C[C@@H](c4ccc(C5CC5)cc4)C3)cn2)on1 [Example 20, ammonium 5-(5-{[cis-3-(4-cyclopropylphenyl)cyclobutyl]oxy}pyrazin-2-yl)isoxazol-3-olate] as the compound, how does the EC50 read?
A: 42 nM

Q: How did the EC50 turn out when Oc1cc(-c2ccc(O[C@H]3C[C@@H](c4ccnc(C(F)(F)F)c4)C3)nc2)on1 [Example 21, 5-(3-hydroxyisoxazol-5-yl)-2-({cis-3-[2-(trifluoromethyl)-pyridin-4-yl]cyclobutyl}-oxy)pyridinium chloride] was run?
A: 254 nM

Q: With CCOc1ccc([C@H]2C[C@@H](Oc3ccc(-c4cc(O)no4)cn3)C2)cn1 [Example 22, 2-ethoxy-5-(cis-3-{[5-(3-hydroxyisoxazol-5-yl)pyridin-2-yl]oxy}cyclobutyl)-pyridinium chloride] as the compound, how does the EC50 read?
A: 92 nM

Q: Which EC50 does the source give for Oc1cc(-c2ccc(O[C@H]3C[C@@H](c4ccc(C(F)(F)F)cn4)C3)nc2)on1 [Example 24, 5-[6-({cis-3-[5-(trifloromethyl)pyridin-2-yl]cyclobutyl}oxy)pyridin-3-yl]isoxazol-3-ol] here?
A: 19 nM

Q: Which EC50 does the source give for Oc1cc(-c2cnc(O[C@H]3C[C@@H](c4ccc(C(F)(F)F)cn4)C3)cn2)on1 [Example 25, 5-[5-({cis-3-[5-(trifluoromethyl)pyridin-2-yl]cyclobutyl}oxy)pyrazin-2-yl]isoxazol-3-ol] here?
A: 46 nM

Q: Oc1cc(-c2cnc(O[C@H]3C[C@@H](c4ccc(OC(F)(F)F)cn4)C3)cn2)on1 [Example 26, 5-[5-({cis-3-[5-(trifluoromethoxy)pyridin-2-yl]cyclobutyl}oxy)pyrazin-2-yl]isoxazol-3-ol] was tested. Which EC50 did it give?
A: 86 nM

Q: CCOc1cc([C@H]2C[C@H](Oc3cnc(-c4cc(O)no4)cn3)C2)ccn1 [Example 27, sodium 5-(5-{[trans-3-(2-ethoxypyridin-4-yl)cyclobutyl]oxy}pyrazin-2-yl)isoxazol-3-olate] was tested. Which EC50 did it give?
A: 177 nM

Q: With Oc1cc(-c2cnc(O[C@H]3C[C@H](c4ccc(C5CC(F)(F)C5)cc4)C3)cn2)on1 [Example 29, 5-[5-({trans-3-[4-(3,3-difluorocyclobutyl)phenyl]cyclobutyl}oxy)pyrazin-2-yl]isoxazol-3-ol] as the compound, how does the EC50 read?
A: 171 nM

Q: With Oc1cc(-c2cnc(O[C@H]3C[C@@H](c4ccc(C5CC(F)(F)C5)cc4)C3)cn2)on1 [Example 30, 5-[5-({cis-3-[4-(3,3-difluorocyclobutyl)phenyl]cyclobutyl}oxy)pyrazin-2-yl)isoxazol-3-ol] as the compound, how does the EC50 read?
A: 155 nM

Q: For Oc1cc(-c2ccc(O[C@H]3C[C@H](c4ccnc(OC5CC5)c4)C3)nc2)on1 [Example 31, sodium 5-[6-({trans-3-[2-(cyclopropyloxy)pyridin-4-yl]cyclobutyl}oxy)pyridin-3-yl]isoxazol-3-olate], which EC50 is on record?
A: 62 nM

Q: For Oc1cc(-c2ccc(O[C@H]3C[C@@H](c4ccnc(OC5CC5)c4)C3)nc2)on1 [Example 32, 5-[6-({cis-3-[2-(cyclopropyloxy)pyridin-4-yl]cyclobutyl}oxy)pyridin-3-yl]isoxazol-3-ol], which EC50 is on record?
A: 16 nM

Q: Oc1cc(-c2cnc(O[C@H]3C[C@H](c4ccnc(OC5CC5)c4)C3)cn2)on1 [Example 33, sodium 5-[5-({trans-3-[2-(cyclopropyloxy)pyridin-4-yl]cyclobutyl}oxy)pyrazin-2-yl]isoxazol-3-olate] was tested. Which EC50 did it give?
A: 320 nM

Q: Oc1cc(-c2cnc(O[C@H]3C[C@@H](c4ccnc(OC5CC5)c4)C3)cn2)on1 [Example 34, 5-[5-({cis-3-[2-(cyclopropyloxy)pyridin-4-yl]cyclobutyl}oxy)pyrazin-2-yl]isoxazol-3-ol] was tested. Which EC50 did it give?
A: 25 nM

Q: Which EC50 does the source give for Oc1cc(-c2ccc(OC3CC(c4ccc(F)cc4)C3)nc2)on1 (stereo not shown) [Example 35, 5-(6-{[3-(4-fluorophenyl)cyclobutyl]oxy}pyridin-3-yl)isoxazol-3-ol trifluoroacetate] here?
A: 10 nM

Q: Which EC50 does the source give for Oc1cc(-c2ccc(OC3CC(c4ccccc4)C3)nc2)on1 (stereo not shown) [Example 36, 5-{6-[(3-phenylcyclobutyl)oxy]pyridin-3-yl}isoxazol-3-ol trifluoroacetate] here?
A: 41 nM

Q: How did the EC50 turn out when Oc1cc(-c2ccc(O[C@H]3C[C@@H](C4CCCCC4)C3)nc2)on1 [Example 37, 2-[(cis-3-cyclohexylcyclobutyl)oxy]-5-(3-hydroxyisoxazol-5-yl)pyridinium chloride] was run?
A: 161 nM

Q: Oc1cc(-c2cnc(O[C@H]3C[C@@H](c4ccc(Cl)cc4)C3)cn2)on1 [Example 38, sodium 5-(5-{[cis-3-(4-chlorophenyl)cyclobutyl]oxy}pyrazin-2-yl)isoxazol-3-olate] was tested. Which EC50 did it give?
A: 17 nM

Q: Which EC50 does the source give for Oc1cc(-c2cnc(O[C@H]3C[C@@H](c4cc(OC5CC5)ccc4F)C3)cn2)on1 [Example 39, 5-[5-({cis-3-[5-(cyclopropyloxy)-2-fluorophenyl]cyclobutyl}oxy)pyrazin-2-yl]isoxazol-3-ol] here?
A: 48 nM

Q: Oc1cc(-c2cnc(O[C@H]3C[C@@H](c4ccc5c(c4)OC(F)(F)O5)C3)cn2)on1 [Example 40, 5-(5-{[cis-3-(2,2-difluoro-1,3-benzodioxol-5-yl)cyclobutyl]oxy}pyrazin-2-yl)isoxazol-3-ol] was tested. Which EC50 did it give?
A: 16 nM

Q: With Oc1cc(-c2cnc(O[C@H]3C[C@@H](c4cccc(OC(F)F)c4F)C3)cn2)on1 [Example 41, 5-[5-({cis-3-[3-(difluoromethoxy)-2-fluorophenyl]cyclobutyl}oxy)pyrazin-2-yl]isoxazol-3-ol] as the compound, how does the EC50 read?
A: 17 nM

Q: With Oc1cc(-c2cnc(O[C@H]3C[C@@H](c4ccc5c(c4)OCCO5)C3)cn2)on1 [Example 42, ammonium 5-(5-{[cis-3-(2,3-dihydro-1,4-benzodioxin-6-yl)cyclobutyl]oxy}pyrazin-2-yl)isoxazol-3-olate] as the compound, how does the EC50 read?
A: 85 nM

Q: Oc1cc(-c2cnc(O[C@H]3C[C@@H](c4cccc5ccccc54)C3)cn2)on1 [Example 43, 5-{5-[(cis-3-naphthalen-1-ylcyclobutyl)oxy]pyrazin-2-yl}isoxazol-3-ol] was tested. Which EC50 did it give?
A: 130 nM

Q: Cc1cc([C@H]2C[C@@H](Oc3cnc(-c4cc(O)no4)cn3)C2)ccc1OC(F)(F)F [Example 44, 5-[5-({cis-3-[3-methyl-4-(trifluoromethoxy)phenyl]cyclobutyl}oxy)pyrazin-2-yl]isoxazol-3-ol] was tested. Which EC50 did it give?
A: 60 nM

Reference: patent US10864211B2, “Hydroxy isoxazole compounds useful as GPR120 agonists” (Merck Sharp & Dohme Corp., priority 2016, dated 2020)
